Results as given in the NIST ThermoML archive (doi:10.1016/j.jct.2016.05.021).

Key:
[1] = xn = mol fraction of the nth substance listed; conditions: 100 kPa, Liquid, x1 = 1; for speed of sound: Frequency=3 MHz, Sing-around technique in a fixed-path interferometer; for mass density: Vibrating tube method
[2] = refractive index (Na D-line) (dimensionless); xn = mol fraction of the nth substance listed; conditions: 100 kPa, Liquid, Standard Abbe refractometry, x1 = 1
[3] = 100 kPa; for speed of sound: Frequency=3 MHz, Sing-around technique in a fixed-path interferometer; for mass density: Vibrating tube method
[4] = refractive index (Na D-line) (dimensionless); conditions: 100 kPa, Standard Abbe refractometry

CCCC[n+]1ccn(C)c1.O=S(=O)([N-]S(=O)(=O)C(F)(F)F)C(F)(F)F + O=C1CCCN1
Conditions | mass density, [1] [kg/m3] | refractive index, [2] | speed of sound, [1] [m/s]
298.15 K | 1433.72 | 1.42671 | 1227.9
303.15 K | 1428.95 | 1.42523 | 1216.8
308.15 K | 1424.18 | 1.42374 | 1205.8
313.15 K | 1419.41 | 1.42225 | 1195
318.15 K | 1414.64 | 1.42076 | 1184.2
323.15 K | 1409.87 | 1.41923 | 1173.6

O=C1CCCN1 [2-pyrrolidinone]
Metastable liquid
Conditions | mass density, [3] [kg/m3] | refractive index, [4] | speed of sound, [3] [m/s]
298.15 K | 1107.16 | 1.48591 | 1634.3
303.15 K | 1103.07 | 1.48403 | 1617.7
308.15 K | 1098.99 | 1.48218 | 1602.3
313.15 K | 1094.9 | 1.48033 | 1585.4
318.15 K | 1090.82 | 1.47841 | 1569.4
323.15 K | 1086.75 | 1.47649 | 1553.5

CCCC[n+]1ccn(C)c1.O=S(=O)([N-]S(=O)(=O)C(F)(F)F)C(F)(F)F
Liquid
Conditions | mass density, [3] [kg/m3] | refractive index, [4] | speed of sound, [3] [m/s]
298.15 K | 1433.72 | 1.42671 | 1227.9
303.15 K | 1428.95 | 1.42523 | 1216.8
308.15 K | 1424.18 | 1.42374 | 1205.8
313.15 K | 1419.41 | 1.42225 | 1195
318.15 K | 1414.64 | 1.42076 | 1184.2
323.15 K | 1409.87 | 1.41923 | 1173.6
